The values that follow come from patent US20160089319A1, “ACTIVES FOR STIMULATING DIFFERENTIATION OF KERATINOCYTES TO LIGHTEN HYPERPIGMENTED SKIN” (ELC MANAGEMENT LLC, priority 2014, published 2016).

This assay concerns basement membrane in hyperpigmented lesions. As to the kind of experiment: Further studies by the inventors on morphology of the basement membrane in hyperpigmented lesions (results not shown). It is filed as in vivo. As to conditions: formulation containing the substance but no Phytofix.

Take sodium ribonucleic acid: the “improvement of the morphology of the basement membrane” value is reported as “no improvement of the morphology of the basement membrane”.
